Source: ChEMBL document CHEMBL1201862, “PubChem BioAssay data set” (2004)
Activity calls are given as the source filed them.

Experiments:
[1] = biological target: T1, Kappa-type opioid receptor (Homo sapiens, UniProt P41145); assay: KOR agonist analogs, arrestin-GFP redistribution, SAR follow-up, imaging, image-based, set 3 (AID 488833); assay type: functional
[2] = biological target: Mu-type opioid receptor (Homo sapiens, UniProt P35372); assay: SAR Analysis of Agonists of the MOR Receptor using an Image-Based Assay - Set 3. [Related pubchem assays (depositor defined):AID1777, AID1785, AID1786, AID1966, AID2133, AID2136, AID2284, AID2285, AID2352]; assay type: functional
Mu-type opioid receptor, sequence (P35372 whole entry): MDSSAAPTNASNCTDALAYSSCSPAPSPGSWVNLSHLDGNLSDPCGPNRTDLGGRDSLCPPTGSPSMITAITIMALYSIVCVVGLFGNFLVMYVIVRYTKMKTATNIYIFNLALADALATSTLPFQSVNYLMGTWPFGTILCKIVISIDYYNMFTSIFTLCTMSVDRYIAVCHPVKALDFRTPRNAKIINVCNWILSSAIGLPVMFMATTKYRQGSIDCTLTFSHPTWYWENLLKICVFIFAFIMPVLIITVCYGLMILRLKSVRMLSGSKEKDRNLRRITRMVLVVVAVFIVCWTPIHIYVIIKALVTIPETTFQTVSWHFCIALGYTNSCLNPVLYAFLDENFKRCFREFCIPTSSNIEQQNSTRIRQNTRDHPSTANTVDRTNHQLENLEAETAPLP

[3] = biological target: Delta-type opioid receptor (Homo sapiens, UniProt P41143); assay: SAR Analysis of Agonists of the DOR Receptor using an Image-Based Assay - Set 3. [Related pubchem assays (depositor defined):AID1777, AID1786]; assay type: functional
Delta-type opioid receptor, sequence (P41143 whole entry): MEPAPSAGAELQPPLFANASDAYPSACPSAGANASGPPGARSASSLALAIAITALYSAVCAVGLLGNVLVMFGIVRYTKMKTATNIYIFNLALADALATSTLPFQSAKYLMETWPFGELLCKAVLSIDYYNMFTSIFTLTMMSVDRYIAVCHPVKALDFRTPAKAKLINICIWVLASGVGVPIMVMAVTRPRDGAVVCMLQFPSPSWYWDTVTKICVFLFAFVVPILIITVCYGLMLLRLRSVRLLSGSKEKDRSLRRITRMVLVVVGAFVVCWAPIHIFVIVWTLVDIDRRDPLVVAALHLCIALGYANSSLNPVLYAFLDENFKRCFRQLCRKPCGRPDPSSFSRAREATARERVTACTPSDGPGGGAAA

[4] = biological target: T1, Kappa-type opioid receptor; assay: SAR analysis of small molecule agonists of the kappa opioid receptor via a luminescent beta-arrestin assay - Set 3. [Related pubchem assays (depositor defined):AID1777, AID1785, AID1786, AID1966, AID2133, AID2136, AID2284, AID2500]; assay type: functional
[5] = NIH-3T3 fibroblast cytotoxicity, dose response, cytotoxicity control, cell-based, fluorescence, Alamar Blue, secondary assay (AID 2327); assay type: functional;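 also: NIH-3T3 mouse fibroblasts cultured with fluconazole at 8 µg/mL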
[6] = biological target: T2, Aminopeptidase N (Plasmodium falciparum FcB1/Columbia, UniProt O96935); assay: P. falciparum M1AAP inhibitors, biochemical, fluorogenic H-Leu-NHMec substrate, 1536-well (AID 1445); set-up: species or system Plasmodium falciparum 3D7, 3D7
T2 sequence (O96935 whole entry): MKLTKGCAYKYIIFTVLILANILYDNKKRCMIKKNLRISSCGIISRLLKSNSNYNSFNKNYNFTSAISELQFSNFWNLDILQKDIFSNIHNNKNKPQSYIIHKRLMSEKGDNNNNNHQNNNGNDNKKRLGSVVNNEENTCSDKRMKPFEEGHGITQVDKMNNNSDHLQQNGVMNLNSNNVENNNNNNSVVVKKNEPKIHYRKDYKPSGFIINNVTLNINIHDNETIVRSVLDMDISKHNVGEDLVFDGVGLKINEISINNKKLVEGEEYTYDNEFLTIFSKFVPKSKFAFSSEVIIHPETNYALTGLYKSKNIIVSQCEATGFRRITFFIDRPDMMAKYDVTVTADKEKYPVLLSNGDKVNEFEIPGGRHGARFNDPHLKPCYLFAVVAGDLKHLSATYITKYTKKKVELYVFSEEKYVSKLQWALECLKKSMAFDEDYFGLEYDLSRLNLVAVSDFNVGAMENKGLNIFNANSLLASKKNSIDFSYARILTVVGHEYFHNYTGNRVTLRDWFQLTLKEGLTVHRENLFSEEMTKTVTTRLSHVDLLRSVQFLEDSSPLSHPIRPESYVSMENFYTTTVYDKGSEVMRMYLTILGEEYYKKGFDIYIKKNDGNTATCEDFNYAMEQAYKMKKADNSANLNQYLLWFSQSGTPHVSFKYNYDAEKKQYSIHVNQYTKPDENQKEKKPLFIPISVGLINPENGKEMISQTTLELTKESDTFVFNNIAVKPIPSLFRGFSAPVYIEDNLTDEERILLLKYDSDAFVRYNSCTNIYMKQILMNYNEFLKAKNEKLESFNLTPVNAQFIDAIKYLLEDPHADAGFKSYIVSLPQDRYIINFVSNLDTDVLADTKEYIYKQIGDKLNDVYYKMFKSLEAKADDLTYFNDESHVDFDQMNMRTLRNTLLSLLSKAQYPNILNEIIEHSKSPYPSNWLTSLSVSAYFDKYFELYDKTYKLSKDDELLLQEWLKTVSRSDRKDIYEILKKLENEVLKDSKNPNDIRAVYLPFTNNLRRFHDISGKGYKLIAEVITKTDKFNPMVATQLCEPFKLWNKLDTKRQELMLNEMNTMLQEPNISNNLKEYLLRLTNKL

[7] = biological target: T3, Bcl-2-like protein 10 (Homo sapiens, UniProt Q9HD36); assay: displacers of TR3 peptide from Bcl-B, primary screen, selectivity assay for Bfl-1 inhibitor project, biochemical, fluorescence polarization, FITC-TR3 peptide (AID 748);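 also: fluorescence polarization from a fluorescein-labelled TR3 peptide binding purified Bcl-B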
T3 sequence (Q9HD36 whole entry): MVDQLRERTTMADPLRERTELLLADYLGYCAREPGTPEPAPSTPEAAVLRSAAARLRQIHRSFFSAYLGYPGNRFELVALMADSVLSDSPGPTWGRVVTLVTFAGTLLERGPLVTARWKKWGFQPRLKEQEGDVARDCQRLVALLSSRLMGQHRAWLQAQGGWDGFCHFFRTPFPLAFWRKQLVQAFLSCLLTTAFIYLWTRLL

[8] = C. albicans growth with fluconazole, confirmation, fluorescence, retest (AID 2467); assay type: functional, cell-based
[9] = biological target: Intestinal-type alkaline phosphatase (Homo sapiens, UniProt P09923); assay: activation of human intestinal alkaline phosphatase – biochemical, dose response (AID 488873); assay type: functional
Intestinal-type alkaline phosphatase (Homo sapiens, UniProt P09923), sequence (P09923 whole entry): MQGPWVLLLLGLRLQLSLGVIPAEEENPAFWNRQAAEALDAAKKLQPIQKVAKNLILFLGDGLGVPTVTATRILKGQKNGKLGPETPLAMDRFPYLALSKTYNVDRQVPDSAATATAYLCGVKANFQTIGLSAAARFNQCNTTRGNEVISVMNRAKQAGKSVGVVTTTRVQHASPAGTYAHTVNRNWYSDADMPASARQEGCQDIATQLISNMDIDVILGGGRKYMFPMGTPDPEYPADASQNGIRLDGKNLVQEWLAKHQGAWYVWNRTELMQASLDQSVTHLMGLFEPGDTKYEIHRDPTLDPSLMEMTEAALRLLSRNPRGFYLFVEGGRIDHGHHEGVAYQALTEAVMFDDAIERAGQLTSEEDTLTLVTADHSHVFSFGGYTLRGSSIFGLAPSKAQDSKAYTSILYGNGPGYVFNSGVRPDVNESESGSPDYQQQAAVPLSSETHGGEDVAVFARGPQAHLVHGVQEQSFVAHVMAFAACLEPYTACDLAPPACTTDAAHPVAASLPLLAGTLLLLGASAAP

[10] = biological target: Alkaline phosphatase, placental type (Homo sapiens, UniProt P05187); assay: PLAP enzyme inhibitors, confirmation, biochemical, luminescence (AID 1512); assay type: functional
Alkaline phosphatase, placental type, sequence (P05187 whole entry): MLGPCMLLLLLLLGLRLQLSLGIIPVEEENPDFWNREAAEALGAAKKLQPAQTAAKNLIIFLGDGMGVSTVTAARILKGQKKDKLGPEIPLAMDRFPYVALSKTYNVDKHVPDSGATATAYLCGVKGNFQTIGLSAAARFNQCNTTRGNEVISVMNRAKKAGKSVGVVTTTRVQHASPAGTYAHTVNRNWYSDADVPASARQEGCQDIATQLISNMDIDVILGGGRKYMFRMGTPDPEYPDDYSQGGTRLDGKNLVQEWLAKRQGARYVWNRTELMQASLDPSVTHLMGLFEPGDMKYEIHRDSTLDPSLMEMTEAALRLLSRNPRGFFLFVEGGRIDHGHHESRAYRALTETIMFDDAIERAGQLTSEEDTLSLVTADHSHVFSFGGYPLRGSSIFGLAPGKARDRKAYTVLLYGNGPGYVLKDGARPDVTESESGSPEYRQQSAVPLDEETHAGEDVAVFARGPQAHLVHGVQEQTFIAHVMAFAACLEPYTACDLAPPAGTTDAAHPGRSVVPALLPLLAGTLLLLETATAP

[11] = biological target: T4, Alkaline phosphatase, tissue-nonspecific isozyme (Homo sapiens, UniProt P05186); assay: human TNAP enzyme inhibitors, SAR follow-up, biochemical, luminescent, dose response (AID 1056)
T4 sequence (P05186 whole entry): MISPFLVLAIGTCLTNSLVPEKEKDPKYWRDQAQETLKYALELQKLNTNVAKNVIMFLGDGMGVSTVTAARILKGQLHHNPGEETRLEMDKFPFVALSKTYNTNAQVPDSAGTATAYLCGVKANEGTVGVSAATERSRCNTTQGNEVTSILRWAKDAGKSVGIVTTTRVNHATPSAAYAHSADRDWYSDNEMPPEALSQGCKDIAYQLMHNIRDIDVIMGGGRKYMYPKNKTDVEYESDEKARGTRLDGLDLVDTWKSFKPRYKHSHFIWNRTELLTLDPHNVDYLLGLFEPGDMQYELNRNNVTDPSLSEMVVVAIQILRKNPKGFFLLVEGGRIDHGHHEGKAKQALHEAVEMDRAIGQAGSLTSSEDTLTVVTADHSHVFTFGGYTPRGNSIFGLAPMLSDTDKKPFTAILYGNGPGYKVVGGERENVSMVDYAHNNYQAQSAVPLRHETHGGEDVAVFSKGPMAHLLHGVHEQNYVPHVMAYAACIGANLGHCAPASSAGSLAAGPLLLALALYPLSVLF

[12] = biological target: Intestinal-type alkaline phosphatase (Mus musculus, UniProt P24822); assay: mouse intestinal alkaline phosphatase activators, dose response, biochemical, luminescence, uHTS hits (AID 488783); assay type: functional
Intestinal-type alkaline phosphatase (Mus musculus, UniProt P24822), sequence (P24822 whole entry): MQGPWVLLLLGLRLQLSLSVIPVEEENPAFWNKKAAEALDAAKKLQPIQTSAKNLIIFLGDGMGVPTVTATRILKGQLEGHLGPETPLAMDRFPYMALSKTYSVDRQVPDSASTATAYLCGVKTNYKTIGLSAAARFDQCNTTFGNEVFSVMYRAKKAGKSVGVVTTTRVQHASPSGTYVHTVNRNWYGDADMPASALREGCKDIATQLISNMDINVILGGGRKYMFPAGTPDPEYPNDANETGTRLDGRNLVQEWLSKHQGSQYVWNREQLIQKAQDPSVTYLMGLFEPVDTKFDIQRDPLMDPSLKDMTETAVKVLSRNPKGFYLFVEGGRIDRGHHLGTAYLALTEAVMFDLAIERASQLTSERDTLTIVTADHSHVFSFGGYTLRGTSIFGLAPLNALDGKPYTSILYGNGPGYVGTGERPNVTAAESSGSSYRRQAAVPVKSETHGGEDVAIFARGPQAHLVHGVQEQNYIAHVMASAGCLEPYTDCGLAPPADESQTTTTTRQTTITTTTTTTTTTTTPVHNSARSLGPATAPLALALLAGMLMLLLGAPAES

[13] = biological target: T4, Alkaline phosphatase, tissue-nonspecific isozyme; assay: TNAP enzyme activators, dose response, selectivity assay for mouse IAP activator project, biochemical, TNAP isozyme, mouse IAP uHTS hits (AID 488880); assay type: functional
[14] = biological target: T5, Rac GTPase-activating protein 1 (Homo sapiens, UniProt Q9H0H5); assay: MgcRacGAP GTPase-activating activity inhibitors, confirmation, biochemical, ADP Hunter fluorescence, primary and confirmatory (AID 624330); assay type: functional
T5 sequence (Q9H0H5 whole entry): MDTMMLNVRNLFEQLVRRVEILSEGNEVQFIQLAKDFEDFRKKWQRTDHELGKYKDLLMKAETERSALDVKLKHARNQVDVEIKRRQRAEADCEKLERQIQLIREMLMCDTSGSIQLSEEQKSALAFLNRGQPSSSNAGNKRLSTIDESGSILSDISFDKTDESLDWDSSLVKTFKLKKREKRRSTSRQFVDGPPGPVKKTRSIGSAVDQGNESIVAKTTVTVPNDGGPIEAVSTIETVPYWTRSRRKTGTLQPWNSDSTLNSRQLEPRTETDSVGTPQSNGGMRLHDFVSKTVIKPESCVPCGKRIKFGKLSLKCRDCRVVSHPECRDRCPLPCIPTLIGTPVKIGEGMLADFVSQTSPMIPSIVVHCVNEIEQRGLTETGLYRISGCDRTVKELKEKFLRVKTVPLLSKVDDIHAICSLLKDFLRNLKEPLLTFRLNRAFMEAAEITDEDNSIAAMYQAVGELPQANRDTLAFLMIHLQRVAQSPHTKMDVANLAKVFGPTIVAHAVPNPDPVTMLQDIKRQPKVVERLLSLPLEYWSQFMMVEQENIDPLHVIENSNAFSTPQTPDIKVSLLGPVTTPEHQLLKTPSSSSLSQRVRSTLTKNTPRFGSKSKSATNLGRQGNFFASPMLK

T1 sequence (P41145 whole entry): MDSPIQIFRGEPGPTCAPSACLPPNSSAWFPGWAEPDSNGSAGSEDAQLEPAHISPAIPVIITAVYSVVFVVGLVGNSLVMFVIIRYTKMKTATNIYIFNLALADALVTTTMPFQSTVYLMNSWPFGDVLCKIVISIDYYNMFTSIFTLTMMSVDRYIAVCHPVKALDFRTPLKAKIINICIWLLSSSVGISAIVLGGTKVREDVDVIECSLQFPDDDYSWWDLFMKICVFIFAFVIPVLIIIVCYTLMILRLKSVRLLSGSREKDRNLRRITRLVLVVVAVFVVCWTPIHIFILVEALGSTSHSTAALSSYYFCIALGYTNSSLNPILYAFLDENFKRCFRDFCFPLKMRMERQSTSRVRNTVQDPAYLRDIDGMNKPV

Row | Compound | EC50 [1] | EC50 [2] | EC50 [3] | EC50 [4] | EC50 [5] | IC50 [6] | IC50 [7] | EC50 [8] | EC50 [9] | IC50 [10] | IC50 [11] | EC50 [12] | EC50 [13] | IC50 [14]
1 | O=[N+]([O-])c1ccc(CSc2nnc(-c3ccccn3)n2Cc2cccs2)cc1 | 0.956 µM (active) | > 32 µM (inactive) | > 64 µM (inactive) | 1.24 µM (active) | – | – | – | – | – | – | – | – | – | –
2 | CCn1c(CSc2nc3ccccc3s2)nnc1SCC(=O)c1ccc(O)c(O)c1 | – | – | – | – | > 160 µM (inactive) | 68.8 µM (active) | > 100 µM (inactive) | > 38 µM (not active) | > 100 µM (inactive) | 3.87 µM (inactive) | > 100 µM (inactive) | 1.84 µM (active) | 64.2 µM (active) | 179 µM (active)
